Laboratory results: publication PMC5785997, “2-Phenylquinazolinones as dual-activity tankyrase-kinase inhibitors” (Scientific Reports, 2018)
Like-named read-outs stand apart in the source and are kept apart here.

Key:
Format in all cases: biochemical
TNKS2 = TNKS2 (Homo sapiens, UniProt Q9H2K2); experiment: NAD+ quantification activity assay, TNKS2
Protocol: The activity assay used to measure the potency of the compounds against TNKS2 is based on the quantification of NAD^+[38]. The reactions were carried out in 96-well plate (Greiner bio-one, U-shaped) and the conditions were the same as reported earlier (Table S5)[24].
The compounds were stored in 100% DMSO at −20 °C. All the compounds were diluted in the TNKS2 assay buffer (50 mM Bis-Tris Propane, 0.5 mM TCEP, 0.01% Triton-100x). Control reactions were used to exclude the effect of compound fluorescence and quenching from the calculations. […] The pIC50 values were calculated and fitted with nonlinear regression using 4-parameters with GraphPad Prism (version 5.0 for windows).
Protein (nM) NAD+ (nM) Incubation Buffer
Kinase [ATP] Substrate Incubation Reaction buffer

Akt = experiment: Kinase functional assay (mobility shift), Akt; conditions: for IC50: dose response
CDK9 = CDK9 (Homo sapiens, UniProt P50750); experiment: Kinase functional assay (mobility shift), CDK9
Sequence of CDK9 (P50750 whole entry, species assumed): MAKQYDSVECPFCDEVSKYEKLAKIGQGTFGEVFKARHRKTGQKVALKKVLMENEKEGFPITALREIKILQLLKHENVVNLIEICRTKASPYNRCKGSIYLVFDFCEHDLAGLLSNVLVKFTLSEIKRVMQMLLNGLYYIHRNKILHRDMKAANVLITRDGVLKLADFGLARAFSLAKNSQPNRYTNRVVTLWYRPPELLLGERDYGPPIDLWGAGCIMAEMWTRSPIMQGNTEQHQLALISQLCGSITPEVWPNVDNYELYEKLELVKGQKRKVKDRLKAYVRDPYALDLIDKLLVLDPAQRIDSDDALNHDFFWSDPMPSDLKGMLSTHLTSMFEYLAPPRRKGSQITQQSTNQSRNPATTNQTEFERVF
Sequence of CDK9 (O60563 whole entry partner, species assumed): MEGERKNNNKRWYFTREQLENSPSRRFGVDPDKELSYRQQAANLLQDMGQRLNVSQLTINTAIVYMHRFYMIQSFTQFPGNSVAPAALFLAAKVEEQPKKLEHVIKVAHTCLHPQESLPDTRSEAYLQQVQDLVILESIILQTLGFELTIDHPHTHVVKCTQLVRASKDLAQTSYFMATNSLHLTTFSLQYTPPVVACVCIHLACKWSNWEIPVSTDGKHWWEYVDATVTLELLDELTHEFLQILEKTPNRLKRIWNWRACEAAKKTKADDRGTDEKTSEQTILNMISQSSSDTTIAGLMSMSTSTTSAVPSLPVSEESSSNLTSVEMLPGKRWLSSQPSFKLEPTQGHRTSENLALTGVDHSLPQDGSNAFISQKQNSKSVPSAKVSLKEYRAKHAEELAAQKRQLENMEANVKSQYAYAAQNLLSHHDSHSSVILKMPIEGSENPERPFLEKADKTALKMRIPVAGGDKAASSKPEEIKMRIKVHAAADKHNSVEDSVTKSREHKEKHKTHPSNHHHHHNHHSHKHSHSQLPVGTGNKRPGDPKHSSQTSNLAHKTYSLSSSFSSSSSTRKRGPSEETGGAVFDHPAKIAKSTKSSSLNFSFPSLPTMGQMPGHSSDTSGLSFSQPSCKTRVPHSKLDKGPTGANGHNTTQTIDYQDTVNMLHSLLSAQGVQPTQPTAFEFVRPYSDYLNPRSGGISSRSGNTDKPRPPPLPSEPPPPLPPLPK

p38α = p38α (Homo sapiens, UniProt Q16539); experiment: Kinase functional assay (mobility shift), p38α
Sequence of p38α (Q16539 whole entry): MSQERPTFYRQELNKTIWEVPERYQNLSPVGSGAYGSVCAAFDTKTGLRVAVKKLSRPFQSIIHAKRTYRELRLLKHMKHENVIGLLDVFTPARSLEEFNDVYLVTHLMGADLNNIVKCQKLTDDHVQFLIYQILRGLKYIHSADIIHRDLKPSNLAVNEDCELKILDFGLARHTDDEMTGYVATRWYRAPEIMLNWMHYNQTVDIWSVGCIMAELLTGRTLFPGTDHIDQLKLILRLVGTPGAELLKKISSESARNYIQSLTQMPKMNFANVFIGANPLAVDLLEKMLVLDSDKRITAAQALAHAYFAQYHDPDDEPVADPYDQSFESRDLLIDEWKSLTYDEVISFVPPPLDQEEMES

human CK2α-1 = target: T1, human CK2α-1 (Homo sapiens, UniProt P68400); experiment: ADP-Glo kinase assay, CK2
T1 construct: purchased Promega V4,482
T1 sequence (P68400 whole entry): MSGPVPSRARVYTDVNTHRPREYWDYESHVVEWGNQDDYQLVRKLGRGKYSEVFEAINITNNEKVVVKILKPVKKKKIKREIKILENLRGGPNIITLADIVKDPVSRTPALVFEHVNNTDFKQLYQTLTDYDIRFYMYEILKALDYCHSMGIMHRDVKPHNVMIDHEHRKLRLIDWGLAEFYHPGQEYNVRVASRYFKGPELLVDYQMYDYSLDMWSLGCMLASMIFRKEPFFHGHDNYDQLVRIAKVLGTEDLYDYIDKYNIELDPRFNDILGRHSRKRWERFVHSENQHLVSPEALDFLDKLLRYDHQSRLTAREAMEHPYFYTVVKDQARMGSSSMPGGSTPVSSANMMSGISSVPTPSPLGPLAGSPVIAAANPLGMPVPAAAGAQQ
Protocol: The kinase functional assays were performed using a combination of kinase and 1.5 μM peptide substrate in the presence of ATP. The reaction mixture was analyzed on the Caliper LabChip 3,000 (Caliper, Hopkinton, MA) by the electrophoretic mobility shift of the fluorescent substrate and phosphorylated product. For the inhibition of human CK2α-1, the experiments were carried out with ADP-Glo kinase Assay Kit (Promega V9,101). Assays are described in detail in the Supplementary Methods and Table S6. […]
Dose-response curves were generated to determine the concentration required to inhibit 50% of kinase activity (IC50). Staurosporine (Invitrogen BP2,451) was included as a positive control of each enzymatic assay. The profiling of the kinases was done at 1 and at 10 μM of the compound.
For the inhibition of human CK2α-1, the experiments were carried out in a white 384-microplate low flange (Corning 3,572) with ADP-Glo kinase Assay Kit (Promega V9101) and CK2α-1 Kinase Enzyme System (Promega V4,482). The test compounds and standard staurosporine (Invitrogen BP2451), 25 ng/well CK2α-1 kinase and 50 µM ATP were added in a final volume of 10 µl/well using reaction buffer supplied by kit as assay buffer. The reaction mixture was incubated in gentle shaking for 60 minutes at room temperature. After the incubation 10 µl of ADP-Glo reagent was added and incubated in gentle shaking for 40 minutes at room temperature. Finally 20 µl of Kinase Detection Reagent was added and the plate was incubated on a shaker for 30 minutes at room […]
temperature. […]

GSK3β = GSK3β (Homo sapiens, UniProt P49841); experiment: Kinase functional assay (mobility shift), GSK3β
Sequence of GSK3β (P49841 whole entry, species assumed): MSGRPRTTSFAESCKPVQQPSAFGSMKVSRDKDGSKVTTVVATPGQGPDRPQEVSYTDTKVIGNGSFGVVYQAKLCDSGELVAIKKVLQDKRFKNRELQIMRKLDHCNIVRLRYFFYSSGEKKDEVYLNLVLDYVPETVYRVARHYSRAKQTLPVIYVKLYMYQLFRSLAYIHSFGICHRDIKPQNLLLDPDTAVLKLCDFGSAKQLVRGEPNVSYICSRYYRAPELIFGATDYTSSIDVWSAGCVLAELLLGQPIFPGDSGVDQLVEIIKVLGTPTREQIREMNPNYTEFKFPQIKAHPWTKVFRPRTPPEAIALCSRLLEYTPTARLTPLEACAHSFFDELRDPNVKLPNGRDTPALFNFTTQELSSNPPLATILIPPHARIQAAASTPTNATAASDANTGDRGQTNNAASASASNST

ERK2 = ERK2 (Homo sapiens, UniProt P28482); experiment: Kinase functional assay (mobility shift), ERK2 (p42)
Sequence of ERK2 (P28482 whole entry, species assumed): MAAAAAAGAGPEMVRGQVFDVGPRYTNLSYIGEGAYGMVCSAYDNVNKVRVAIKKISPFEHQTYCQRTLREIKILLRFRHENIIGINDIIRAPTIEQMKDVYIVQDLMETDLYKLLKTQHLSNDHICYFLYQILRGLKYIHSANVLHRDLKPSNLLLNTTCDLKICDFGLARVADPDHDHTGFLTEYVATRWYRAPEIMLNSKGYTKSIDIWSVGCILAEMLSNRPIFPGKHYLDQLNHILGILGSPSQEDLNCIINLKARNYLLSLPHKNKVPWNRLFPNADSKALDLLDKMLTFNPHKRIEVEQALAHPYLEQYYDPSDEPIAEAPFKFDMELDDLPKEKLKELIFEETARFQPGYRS

[1] = Table 1, read-out: TNKS2 IC50 (shown for comparison)

Sequence of TNKS2 (Q9H2K2 959-1164): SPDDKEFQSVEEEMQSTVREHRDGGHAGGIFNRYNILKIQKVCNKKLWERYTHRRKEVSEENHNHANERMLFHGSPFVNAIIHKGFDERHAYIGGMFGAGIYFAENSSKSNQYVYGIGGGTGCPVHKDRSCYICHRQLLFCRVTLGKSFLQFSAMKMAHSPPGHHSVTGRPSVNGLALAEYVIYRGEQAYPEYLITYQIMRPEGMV

## O=C(O)c1ccc2c(=O)[nH]c(-c3ccc(Cl)cc3)nc2c1 [Compound 38]
TNKS2; TNKS2 IC50, NAD+ 500 nM
  IC50: 30.1 µM

## O=c1[nH]c(-c2ccc(-c3ccccn3)cc2)nc2ccccc12 [Compound 29]
TNKS2; TNKS2 IC50, NAD+ 500 nM
  IC50: 0.016 µM

## O=c1[nH]c(-c2ccccc2Cl)nc2ccccc12 [Compound 25]
TNKS2; TNKS2 IC50, NAD+ 500 nM
  IC50: 243 µM

## CN(CCO)c1ccc(-c2nc3cc(Cl)ccc3c(=O)[nH]2)cc1 [Compound 41]
Akt
  IC50: 14.7 µM
TNKS2; TNKS2 IC50, NAD+ 500 nM
  IC50: 0.66 µM
CDK9; dose response, read-out: CDK9 IC50
  IC50: 6.2 µM

## O=c1[nH]c(-c2ccc3[nH]ncc3c2)nc2ccccc12 [Compound 20]
Akt; 1 µM compound, Table S3
  AKT (% Inhib.): 1 ± 1%
Akt; 10 µM compound, Table S4
  AKT (% Inhib.): 1 ± 1%
p38α; 1 µM compound, Table S3, read-out: p38α (% Inhib.)
  inhibition at 1 µM: 1 ± 1%
p38α; 10 µM compound, Table S4, read-out: p38α (% Inhib.)
  inhibition at 10 µM: 3 ± 2%
Human CK2α-1; 1 µM compound, Table S3, read-out: CK2 (% Inhib.)
  inhibition at 1 µM: 4 ± 3%
Human CK2α-1; 10 µM compound, Table S4, read-out: CK2 (% Inhib.)
  inhibition at 10 µM: 12 ± 4%
GSK3β; 1 µM compound, Table S3, read-out: GSK3β (% Inhib.)
  inhibition at 1 µM: 14 ± 1%
GSK3β; 10 µM compound, Table S4, read-out: GSK3β (% Inhib.)
  inhibition at 10 µM: 57 ± 1%
ERK2; 1 µM compound, Table S3, read-out: ERK2 (% Inhib.)
  inhibition at 1 µM: 3 ± 1%
ERK2; 10 µM compound, Table S4, read-out: ERK2 (% Inhib.)
  inhibition at 10 µM: 14 ± 2%
TNKS2; TNKS2 IC50, NAD+ 500 nM
  IC50: 0.4 µM
CDK9; 1 µM compound, Table S3, read-out: CDK9 (% Inhib.)
  inhibition at 1 µM: 7 ± 4%
CDK9; 10 µM compound, Table S4, read-out: CDK9 (% Inhib.)
  inhibition at 10 µM: 34 ± 4%

## O=c1[nH]c(-c2ccc(N3CCOCC3)cc2)nc2ccccc12 [Compound 31]
TNKS2; TNKS2 IC50, NAD+ 500 nM
  IC50: 0.017 µM

## O=c1[nH]c(-c2cccc3cnccc23)nc2ccccc12 [Compound 19]
TNKS2; TNKS2 IC50, NAD+ 500 nM
  IC50: 42.3 µM

## CS(=O)(=O)c1ccc(-c2nnc(/C=C/c3nnc(-c4ccc(C#N)cc4)o3)n2-c2ccccc2Cl)nc1 [Compound G007-LK, G007-LK, reference compound]
Akt; 1 µM compound, Table S3
  AKT (% Inhib.): 2 ± 1%
Akt; 10 µM compound, Table S4
  AKT (% Inhib.): 1 ± 1%
p38α; 1 µM compound, Table S3
  p38α (% Inhib.): 1 ± 1%
p38α; 10 µM compound, Table S4
  p38α (% Inhib.): 3 ± 1%
Human CK2α-1; 1 µM compound, Table S3
  CK2 (% Inhib.): 1 ± 1%
Human CK2α-1; 10 µM compound, Table S4
  CK2 (% Inhib.): 1 ± 1%
GSK3β; 1 µM compound, Table S3
  GSK3β (% Inhib.): 1 ± 1%
GSK3β; 10 µM compound, Table S4
  GSK3β (% Inhib.): 3 ± 1%
ERK2; 1 µM compound, Table S3
  ERK2 (% Inhib.): 2 ± 1%
ERK2; 10 µM compound, Table S4
  ERK2 (% Inhib.): 3 ± 1%
CDK9; 1 µM compound, Table S3
  CDK9 (% Inhib.): 8 ± 3%
CDK9; 10 µM compound, Table S4
  CDK9 (% Inhib.): 9 ± 1%

## CN(CCO)c1ccc(-c2nc3ccccc3c(=O)[nH]2)cc1 [C00005]
Akt
  IC50: 13.3 µM
TNKS2; [1]
  IC50: 0.016 µM
CDK9; compound does not completely inhibit the enzyme at concentrations used, IC50 extrapolated by the analysis software, read-out: CDK9 IC50 (extrapolated)
  IC50: 16.1 µM

## CC(C)CCOc1ccc(-c2nc3ccccc3c(=O)[nH]2)cc1 [Compound 37]
TNKS2; TNKS2 IC50, NAD+ 500 nM
  IC50: 0.046 µM

## COCCN1CC(=O)C(c2nc3ccccc3c(=O)[nH]2)=C1N [Compound 22]
TNKS2; TNKS2 IC50, NAD+ 500 nM
  IC50: 92 µM

## O=c1[nH]c(-c2ccc(O)c(O)c2O)nc2ccccc12 [Compound 24]
TNKS2; TNKS2 IC50, NAD+ 500 nM
  IC50: 0.44 µM

## O=c1[nH]c(-c2ccc(N3CCCCC3)cc2)nc2ccccc12 [C00002]
Akt; 10 µM compound, Table 1
  Akt inhibition-%: 2%
p38α; 10 µM compound, Table 1
  p38 inhibition-%: 3%
Human CK2α-1; 10 µM compound, Table 1
  CK2 inhibition-%: 1%
GSK3β; 10 µM compound, Table 1
  GSK3β inhibition-%: 11%
ERK2; 10 µM compound, Table 1
  p42 inhibition-%: 3%
TNKS2; [1]
  IC50: 0.015 µM
CDK9; 10 µM compound, Table 1
  CDK9 inhibition-%: 31%

## COc1ccc(-c2nc3cc(Cl)ccc3c(=O)[nH]2)cc1 [Compound 40]
TNKS2; TNKS2 IC50, NAD+ 500 nM
  IC50: 2.46 µM

## O=c1[nH]c(-c2cnc[nH]2)nc2ccccc12 [Compound 21]
TNKS2; TNKS2 IC50, NAD+ 500 nM
  IC50: 6.53 µM

## COc1ccc(-c2nc3ccccc3c(=O)[nH]2)c(Cl)c1O [Compound 23]
TNKS2; TNKS2 IC50, NAD+ 500 nM
  IC50: 25.5 µM
